For data set [1], the target named is T1, recombinant human FAAH enzyme (rFAAH) (Homo sapiens, UniProt O00519).
T1 sequence (O00519 1-579): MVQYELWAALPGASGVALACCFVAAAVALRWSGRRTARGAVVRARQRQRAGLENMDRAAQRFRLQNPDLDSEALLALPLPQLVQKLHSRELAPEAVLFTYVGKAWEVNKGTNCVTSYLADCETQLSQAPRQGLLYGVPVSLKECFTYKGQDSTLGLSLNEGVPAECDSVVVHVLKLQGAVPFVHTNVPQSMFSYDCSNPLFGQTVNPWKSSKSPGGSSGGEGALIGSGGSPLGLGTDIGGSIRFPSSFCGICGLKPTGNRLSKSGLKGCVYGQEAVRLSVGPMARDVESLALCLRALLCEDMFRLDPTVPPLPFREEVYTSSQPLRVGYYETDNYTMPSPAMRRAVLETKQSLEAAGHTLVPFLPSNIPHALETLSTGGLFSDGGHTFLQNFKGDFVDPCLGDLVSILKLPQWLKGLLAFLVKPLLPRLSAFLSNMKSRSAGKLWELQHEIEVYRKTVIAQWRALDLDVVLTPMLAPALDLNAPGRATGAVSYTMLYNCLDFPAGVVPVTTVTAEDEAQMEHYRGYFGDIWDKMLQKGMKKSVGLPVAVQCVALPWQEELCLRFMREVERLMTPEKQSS
Put plainly: Direct prodrug cleavage with recombinant human FAAH enzyme (rFAAH): d3-Cr release and d3-Crn cyclization. Conditions: 200 μM prodrug, 3 h; result in words. Format: biochemical. The procedure:
For assessment of the ability of prodrugs to release creatine, and to release creatine preferentially to unwanted cyclization to creatinine, d3-labeled (deuterium labeled methyl group) prodrugs are incubated with brain homogenates (e.g., mouse, human) specially prepared to preserve FAAH activity or with rFAAH for direct cleavage study. The use of d3-labelled prodrugs is essential in order to distinguish prodrug-derived creatine (d3-creatine) from high concentrations of endogenous (non-labeled) creatine. […] Prodrugs are tested at final concentrations of 20 μM and 200 μM. Approximately 3-4 mg of homogenate is used for each reaction. Co-factor (NADPH) is included at a final concentration of 1 mM. FAAH activity is confirmed by conversion of 7-amino-4-methyl Coumarin-Arachidonamide to 7-amino-4-methyl Coumarin by fluorescent assay. Negative controls include incubations without brain homogenate/rFAAH (but with NADPH) or 65° C. heat inactivated brain homogenate/rFAAH to assess non-enzymatic prodrug cleavage under the conditions of the assay and FAAH inhibitor […] at the concentration of 1 μM. Prodrug incubations are prepared by addition of 8 μL of prodrug stock solution (500 or 5000 μM in DMSO or DMSO/methanol) to assay buffered, followed by addition of brain homogenate/rFAAH. […] The samples are centrifuged at 15890×g for 10 minutes at 4° C., followed by transfer of the supernatants for storage at −20° C. pending LC-MS/MS analysis. Sample supernatants are analyzed by LC-MS/MS for determination of d3-prodrug, d3-creatine and d3-creatinine levels.
Deuterated creatine prodrugs were tested in 3 different in vitro assays to assess d3-creatine (d3-Cr) release and cyclization to form d3-creatinine (d3-Crn). These assays were 1) direct cleavage with recombinant human FAAH enzyme (rFAAH), 2) cleavage in mouse brain homogenates (MBH), and 3) human brain homogenates (HBH).
Creatine prodrug cleavage efficiency was determined by percentage of net d3-Cr release in μM (positive reaction subtracted from negative control of no brain homogenate/rFAAH or inactivated brain homogenate/rFAAH) over nominal input concentration of 200 μM prodrug at 3 h. Propensity for creatinine cyclization was determined by percentage of d3-Crn generated in μM in positive reaction over nominal input concentration of 200 μM prodrug at 3 h.

The nature of data set [2]: Chemical stability in simulated intestinal fluid (SIF) without pancreatin. Format: physicochemical. Conditions: Table 2A, 50 μM prodrug. Here is the method: Chemical stability of creatine prodrugs in phosphate buffered saline (PBS), simulated intestinal fluid (SIF) without pancreatin, simulated gastric fluid (SGF) without pepsin were determined by LC-UV, LC-CAD, LC-UV-CAD or LC-MS/MS as appropriate. Creatine prodrugs of the present disclosure (50 μM) were incubated at 37° C. according to described protocols and prodrug levels were compared between t=0, t=15, t=60, and t=120 mins by peak area ratio to determine the percentage remained at t=120 mins (2 h).
Protocol for PBS, SIF and SGF stability for screening:
Prodrugs (50 μM) were incubated in PBS, FaSSIF (Biorelevant) or FaSSGF (Biorelevant) at 37° C.

The nature of data set [3]: In vivo IV dosing in CrT KO mice: prodrug, d3-Cr and d3-Crn in brain (Table 5). Conditions: CrT KO mouse brain, BQL prodrug = 41.2 ng/mL. The procedure, abridged:
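CrT KO mice received prodrugs by IV injection at 10, 15 or 25 mg/kg. Brains were collected, flash frozen and homogenized in 100 mM KPI buffer with anti-proteases. Prodrug, d3-Cr and d3-Crn were quantified by LC-MS/MS and expressed as brain concentration (macrocycles) or AUC over time (linear prodrugs).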

As to `Cl.[H]/N=C(/NC(=O)CCCCCCC/C=C\CCCCCCCC)N(CC(=O)OCCCCCCC)C([2H])([2H])[2H]` [Compound 2, (Z)-heptyl 2-(1-trideuteriomethyl-3-oleoylguanidino)acetate Hydrochloride], in data set [1], the “Prodrug Cleavage rFAAH d3-Crn release (yes/no)” value is listed as “yes” and the “Prodrug Cleavage rFAAH net d3-Cr release (yes/no)” value is listed as “no”.
As to `Cl.[2H]C([2H])([2H])N(CC(=O)OCC)C(=N)NC(=O)CCCCCCCCCC` [Compound 8], the “Chemical Stability SIF, no enzyme % T0 at 2 hours at 37 °C.” value in data set [2] is given as 17%. The “AUClast prodrug in the brain” value in data set [3] (IV 15 mg/kg) is recorded as “BQL”.
As for `Cl.[2H]C([2H])([2H])N(CC(=O)OCCCCCCC)C(=N)NC(=O)CCCCCCCCCCCC` [Compound 11], in data set [1], the “Prodrug Cleavage rFAAH d3-Crn release (yes/no)” value was “yes” and the “Prodrug Cleavage rFAAH net d3-Cr release (yes/no)” value was “no”. The “AUClast prodrug in the brain” value in data set [3] (IV 10 mg/kg) is “BQL”.

The values above are taken from patent publication US11332438B2, “Creatine prodrugs, compositions and methods of use thereof” (Ultragenyx Pharmaceutical Inc., priority 2017, dated 2022).
